Key:
Ba/F3 cells TPM3-TRKA = target: T1, Ba/F3 cells TPM3-TRKA (Homo sapiens, UniProt P04629); assay: Ba/F3 cell proliferation assay, TPM3-TRKA; assay type: cell-based; conditions: 72 hours, CellTiter-Glo, read-out: TPM3-NTRK1-wt IC50
T1 construct: host or cells: Ba/F3 (RIKEN), retroviral pMSCV-puro; the other entry of the earlier key: TPM3 (P06753, Tropomyosin alpha-3 chain)
Procedure, shortened: (§1)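 IL-3-independent Ba/F3 lines stably expressing the fusion kinase (retroviral, puromycin-selected), 1,000 cells/well, treated with 3-fold compound dilutions for 72 h. Viability by CellTiter-Glo luminescence; IC50 from four-parameter logistic fit of percent inhibition.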

TRKA-wt = target: T2, TRKA-wt (Homo sapiens, UniProt P04629); assay: Biochemical kinase assay, TRKA-wt kinase domain; conditions: apparent inhibitory constant, Morrison equation; ATP 2 mM in substrate solution; read-out: TRKA-wt Ki^app
T2 construct: or TRKA-wt (1 nM, BPS Bio, 40280) kinase domains in buffer; purchased BPS Bio 40280
T2 sequence (P04629 510-781 limits assumed): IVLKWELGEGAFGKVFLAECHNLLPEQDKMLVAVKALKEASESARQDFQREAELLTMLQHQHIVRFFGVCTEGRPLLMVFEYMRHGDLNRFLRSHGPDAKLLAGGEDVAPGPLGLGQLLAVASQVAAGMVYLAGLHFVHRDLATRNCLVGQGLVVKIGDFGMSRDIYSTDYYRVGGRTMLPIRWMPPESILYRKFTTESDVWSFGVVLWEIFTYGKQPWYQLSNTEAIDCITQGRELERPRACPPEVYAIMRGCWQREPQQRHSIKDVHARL
Procedure, shortened: (§2)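 Kinase domains (in kinase solution: ROS1-G2032R 0.5 nM, ROS1-wt 0.6 nM, TRKA 1 nM, ALK L1196M/G1202R 3 nM) were mixed with compound and a substrate solution of 2 mM ATP plus 26 μM fluorogenic AQT0101 (ALK, ROS1) or AQT0104 (TRKA) in HEPES pH 7.5/MgCl2. Fluorescence was followed for 120 min at 30° C; Ki^app was obtained by Morrison fit of initial rates.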

[1] = target: T3, Ba/F3 cells EML4-ALK wt (variant 1) (Homo sapiens, UniProt Q9UM73); assay: Ba/F3 cell proliferation assay, EML4-ALK wt (variant 1); assay type: cell-based; conditions: 72 hours, CellTiter-Glo
T3 construct: echinoderm microtubule-associated protein-like 4 (EML4) gene and the ALK tyrosine kinase domain; host or cells: Ba/F3 (RIKEN), retroviral pMSCV-puro; the other entry of the earlier key: EML4 (Q9HC35, Echinoderm microtubule-associated protein-like 4)
T3 sequence (Q9UM73 with tags, fused parts or gaps): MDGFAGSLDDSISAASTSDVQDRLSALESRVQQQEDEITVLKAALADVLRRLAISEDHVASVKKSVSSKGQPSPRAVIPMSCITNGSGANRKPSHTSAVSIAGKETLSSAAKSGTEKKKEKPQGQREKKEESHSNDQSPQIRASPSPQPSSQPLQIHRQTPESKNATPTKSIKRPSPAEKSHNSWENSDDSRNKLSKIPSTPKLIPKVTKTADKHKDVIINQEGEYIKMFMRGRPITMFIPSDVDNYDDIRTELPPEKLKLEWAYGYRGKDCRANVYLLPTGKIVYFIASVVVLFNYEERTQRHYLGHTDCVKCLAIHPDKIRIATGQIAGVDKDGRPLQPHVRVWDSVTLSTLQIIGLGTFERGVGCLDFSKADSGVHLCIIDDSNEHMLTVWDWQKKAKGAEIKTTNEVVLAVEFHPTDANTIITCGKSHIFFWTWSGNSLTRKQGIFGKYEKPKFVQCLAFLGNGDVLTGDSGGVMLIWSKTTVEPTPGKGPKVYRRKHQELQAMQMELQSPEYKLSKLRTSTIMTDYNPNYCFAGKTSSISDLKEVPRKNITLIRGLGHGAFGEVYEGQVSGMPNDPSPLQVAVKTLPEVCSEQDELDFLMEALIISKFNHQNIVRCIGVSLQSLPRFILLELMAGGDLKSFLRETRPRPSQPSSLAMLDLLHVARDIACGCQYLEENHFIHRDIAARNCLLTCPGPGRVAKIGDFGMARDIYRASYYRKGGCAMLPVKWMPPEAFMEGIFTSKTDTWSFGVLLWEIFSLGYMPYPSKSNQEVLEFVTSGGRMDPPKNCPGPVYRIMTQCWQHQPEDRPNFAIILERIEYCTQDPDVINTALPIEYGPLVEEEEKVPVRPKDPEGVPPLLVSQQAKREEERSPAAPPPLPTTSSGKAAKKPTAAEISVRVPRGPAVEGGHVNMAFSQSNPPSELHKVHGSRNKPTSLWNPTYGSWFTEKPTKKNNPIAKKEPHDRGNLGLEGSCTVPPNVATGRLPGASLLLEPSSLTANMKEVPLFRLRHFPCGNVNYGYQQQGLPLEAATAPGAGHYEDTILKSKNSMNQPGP
Procedure, shortened: as §1

ALK-wt = target: T4, ALK-wt (Homo sapiens, UniProt Q9UM73); assay: Biochemical kinase assay, ALK-wt kinase domain; conditions: apparent inhibitory constant, Morrison equation; ATP 2 mM in substrate solution; read-out: ALK-wt Ki^app
T4 construct: purchased Carna 08-518
T4 sequence (Q9UM73 1116-1392 limits assumed): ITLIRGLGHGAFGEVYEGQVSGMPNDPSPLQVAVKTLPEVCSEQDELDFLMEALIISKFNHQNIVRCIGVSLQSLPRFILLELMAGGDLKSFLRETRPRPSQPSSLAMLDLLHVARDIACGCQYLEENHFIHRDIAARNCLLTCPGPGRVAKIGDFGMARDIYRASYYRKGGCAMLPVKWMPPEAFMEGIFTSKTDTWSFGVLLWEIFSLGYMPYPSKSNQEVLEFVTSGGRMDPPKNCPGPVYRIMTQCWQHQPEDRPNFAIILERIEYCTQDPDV
Procedure, shortened: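 Apparent Ki values come from fitting initial reaction rates against inhibitor concentration to the Morrison equation. Rates were taken from the linear phase of fluorogenic substrate phosphorylation (AQT0101 for ALK and ROS1, AQT0104 for TRKA; 26 μM in substrate solution with 2 mM ATP), monitored at 485 nm over 120 min at 30° C.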

[2] = target: T5, Ba/F3 cells EML4-ALK L1196M/G1202R (variant 1) (Homo sapiens, UniProt Q9UM73, G1202R/L1196M); assay: Ba/F3 cell proliferation assay, EML4-ALK L1196M/G1202R (variant 1); assay type: cell-based; conditions: 72 hours, CellTiter-Glo
T5 construct: echinoderm microtubule-associated protein-like 4 (EML4) gene and the ALK tyrosine kinase domain; host or cells: Ba/F3 (RIKEN), retroviral pMSCV-puro; the other entry of the earlier key: EML4 (Q9HC35, Echinoderm microtubule-associated protein-like 4)
T5 sequence (Q9UM73 with tags, fused parts or gaps L1196M/G1202R): as the sequence (Q9UM73 with tags, fused parts or gaps) above, with L635M, G641R counted along it
Procedure, shortened: as §1

ROS1-wt = target: T6, ROS1-wt (Homo sapiens, UniProt P08922); assay: Biochemical kinase assay, ROS1-wt kinase domain; conditions: apparent inhibitory constant, Morrison equation; ATP 2 mM in substrate solution; read-out: ROS1-wt Ki^app
T6 construct: purchased Carna 08-163
T6 sequence (P08922 1945-2222 limits assumed): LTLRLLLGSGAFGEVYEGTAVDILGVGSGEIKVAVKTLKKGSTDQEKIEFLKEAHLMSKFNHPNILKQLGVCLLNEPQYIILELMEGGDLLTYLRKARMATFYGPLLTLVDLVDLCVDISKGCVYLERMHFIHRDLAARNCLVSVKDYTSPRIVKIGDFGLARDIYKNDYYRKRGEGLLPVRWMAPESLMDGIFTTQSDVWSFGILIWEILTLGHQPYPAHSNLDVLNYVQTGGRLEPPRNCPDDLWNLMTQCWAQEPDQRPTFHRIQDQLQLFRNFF
Procedure, shortened: (§3)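 Compounds, as 100-fold DMSO stocks, were dispensed first, then substrate mix was added (ATP 2 mM, AQT0101 26 μM, in 50 mM HEPES pH 7.5/10 mM MgCl2). Reactions ran at 30 °C with fluorescence logged every 2 min over 120 min. Apparent inhibition constants came from fitting rates to Morrison's tight-binding equation.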

[3] = target: T7, Ba/F3 cells CD74-ROS1 G2032R (Homo sapiens, UniProt P08922, G2032R); assay: Ba/F3 cell proliferation assay, CD74-ROS1 G2032R; assay type: cell-based; conditions: 72 hours, CellTiter-Glo
T7 construct: fusion of the C-terminus of ROS1 with the N-terminus of various partner proteins; host or cells: Ba/F3 (RIKEN), retroviral pMSCV-puro; the other entry of the earlier key: CD74 (P04233, HLA class II histocompatibility antigen gamma chain)
T7 sequence (P08922 1883-2347 G2032R limits assumed): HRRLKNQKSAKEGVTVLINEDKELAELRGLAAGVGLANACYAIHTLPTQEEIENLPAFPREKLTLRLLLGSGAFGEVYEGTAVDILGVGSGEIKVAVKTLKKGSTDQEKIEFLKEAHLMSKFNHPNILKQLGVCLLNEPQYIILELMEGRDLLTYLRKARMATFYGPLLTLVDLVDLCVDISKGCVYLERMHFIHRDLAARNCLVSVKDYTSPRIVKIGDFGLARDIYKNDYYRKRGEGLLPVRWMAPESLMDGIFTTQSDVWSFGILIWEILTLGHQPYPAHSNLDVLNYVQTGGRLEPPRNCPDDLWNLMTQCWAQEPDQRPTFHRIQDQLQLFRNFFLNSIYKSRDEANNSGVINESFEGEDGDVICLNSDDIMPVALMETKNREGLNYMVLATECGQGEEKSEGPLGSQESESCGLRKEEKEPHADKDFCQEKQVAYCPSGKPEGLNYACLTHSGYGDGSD
Procedure, shortened: (§4)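 Cells seeded 1 day, then treated with 3-fold compound dilutions for 72 h; viability by CellTiter-Glo luminescence. IC50 from percent inhibition by four-parameter logistic fit.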

[4] = system: TPM3-NTRK1-wt IC50 / primary target IC50 (e.g. CD74-ROS1-wt); assay: TRKA selectivity in Ba/F3 cells (TRKA potency divided by primary target potency); assay type: cell-based; conditions: for TPM3-NTRK1-wt/CD74-ROS1-G2032R selectivity ratio: TRKA potency / CD74-ROS1-G2032R potency; for TPM3-NTRK1-wt/CD74-ROS1-wt selectivity ratio: TRKA potency / CD74-ROS1-wt potency; for TPM3-NTRK1-wt/EML4-ALK-L1196M-G1202R selectivity ratio: TRKA potency / EML4-ALK-L1196M-G1202R potency; for TPM3-NTRK1-wt/EML4-ALK-wt selectivity ratio: TRKA potency / EML4-ALK-wt potency
Protocol: TRKA selectivity was calculated by dividing a compound's TRKA potency by its primary target potency (e.g. TPM3-NTRK1-wt IC50/CD74-ROS1-wt IC50). Compound selectivity can be interpreted by binning ratio values: bin A for very high selectivity, ratio >30-fold; bin B for high selectivity, ratio >10-fold; bin C for moderate selectivity, ratio ≥1; and bin D for low selectivity, ratio <1. […] (nd=not determined).

ROS1-G2032R = target: T8, ROS1-G2032R (Homo sapiens, UniProt P08922, G2032R); assay: Biochemical kinase assay, ROS1-G2032R kinase domain; conditions: apparent inhibitory constant, Morrison equation; ATP 2 mM in substrate solution; read-out: ROS1-G2032R Ki^app
T8 construct: purchased SignalChem R14-12BG
T8 sequence (P08922 1945-2222 G2032R limits assumed): as the sequence (P08922 1945-2222 limits assumed) above, with G88R counted along it
Procedure, shortened: as §3

ALK L1196M/G1202R = target: T9, ALK L1196M/G1202R (Homo sapiens, UniProt Q9UM73, G1202R/L1196M); assay: Biochemical kinase assay, ALK L1196M/G1202R kinase domain; conditions: apparent inhibitory constant, Morrison equation; ATP 2 mM in substrate solution; read-out: ALK-L1196M-G1202R Ki^app
T9 construct: purchased SignalChem A19-12NG
T9 sequence (Q9UM73 1116-1392 L1196M/G1202R limits assumed): as the sequence (Q9UM73 1116-1392 limits assumed) above, with L81M, G87R counted along it
Procedure, shortened: as §2

[5] = target: T10, Ba/F3 cells CD74-ROS1 wild-type (wt) (Homo sapiens, UniProt P08922); assay: Ba/F3 cell proliferation assay, CD74-ROS1 wild-type; assay type: cell-based; conditions: 72 hours, CellTiter-Glo
T10 construct: fusion of the C-terminus of ROS1 with the N-terminus of various partner proteins; host or cells: Ba/F3 (RIKEN), retroviral pMSCV-puro; the other entry of the earlier key: CD74 (P04233, HLA class II histocompatibility antigen gamma chain)
T10 sequence (P08922 1883-2347 limits assumed): as the sequence (P08922 1883-2347 G2032R limits assumed) above, with R150G counted along it
Procedure, shortened: as §4

T1 sequence (P04629 510-796 limits assumed): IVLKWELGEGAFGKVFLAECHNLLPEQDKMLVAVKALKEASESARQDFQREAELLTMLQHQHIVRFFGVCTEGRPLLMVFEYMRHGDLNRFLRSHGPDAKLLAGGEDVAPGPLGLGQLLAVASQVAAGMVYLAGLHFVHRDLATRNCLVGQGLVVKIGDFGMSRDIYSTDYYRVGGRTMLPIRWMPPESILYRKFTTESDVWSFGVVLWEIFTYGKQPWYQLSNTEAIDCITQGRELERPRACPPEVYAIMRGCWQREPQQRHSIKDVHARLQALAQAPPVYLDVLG

IC50 (Ba/F3 cells TPM3-TRKA) [nM] | Ki (TRKA-wt) [nM] | IC50 [1] [nM] | Ki (ALK-wt) [nM] | IC50 [2] [nM] | Ki (ROS1-wt) [nM] | IC50 [3] [nM] | Ki (ROS1-G2032R) [nM] | Ki (ALK L1196M/G1202R) [nM] | IC50 [5] [nM] | SMILES | TPM3-NTRK1-wt/CD74-ROS1-G2032R selectivity ratio [4] | TPM3-NTRK1-wt/CD74-ROS1-wt selectivity ratio [4] | TPM3-NTRK1-wt/EML4-ALK-L1196M-G1202R selectivity ratio [4] | TPM3-NTRK1-wt/EML4-ALK-wt selectivity ratio [4]
> 500 | > 500 | 0.1 to 50 | < 50 | 50 to 500 | < 50 | 0.1 to 50 | < 50 | < 50 | 0.1 to 50 | Cc1nn(CC2CC2)c2c1Cn1nccc1-c1ccc(F)cc1[C@@H](C)Oc1cc-2cnc1N [Example 45, (19R)-3-(cyclopropylmethyl)-16-fluoro-5,19-dimethyl-20-oxa-3,4,8,9,23-pentaazapentacyclo[19.3.1.0^2,^6.0^8,^12.0^13,^18]pentacosa-1(24),2(6),4,9,11,13,15,17,21(25),22-decaen-22-amine] | A (bin A for very high selectivity, ratio >30-fold) | A (bin A for very high selectivity, ratio >30-fold) | A (bin A for very high selectivity, ratio >30-fold) | A (bin A for very high selectivity, ratio >30-fold)
> 500 | > 500 | 0.1 to 50 | < 50 | > 500 | < 50 | 50 to 500 | 50 to 500 | 50 to 500 | 0.1 to 50 | C[C@H]1Oc2cc(cnc2N)-c2c(C#N)cnn2Cc2ncsc2-c2ccc(F)cc21 [Example 49, (19R)-22-amino-16-fluoro-19-methyl-20oxa-11-thia-5,6,9,23-tetraazapentacyclo[19.3.1.0^2,^6.0^8,^12.0^13,^18]pentacosa-1(24),2,4,8(12),9,13,15,17,21(25),22-decaene-3-carbonitrile] | B (bin B for high selectivity, ratio >10-fold) | A (bin A for very high selectivity, ratio >30-fold) | C (bin C for moderate selectivity, ratio ≥1) | A (bin A for very high selectivity, ratio >30-fold)
> 500 | 50 to 500 | 0.1 to 50 | < 50 | 50 to 500 | < 50 | 0.1 to 50 | 50 to 500 | < 50 | 0.1 to 50 | CCc1noc2c1-c1cnc(N)c(c1)O[C@H](C)c1cc(F)ccc1-c1ncnn1C2 [Example 50, (19R)-3-ethyl-16-fluoro-19-methyl-5,20-dioxa-4,8,9,11,23-pentaazapentacyclo[19.3.1.0^2,^6.0^8,^12.0^13,^18]pentacosa-1(24),2(6),3,9,11,13,15,17,21(25),22-decaen-22-amine] | B (bin B for high selectivity, ratio >10-fold) | A (bin A for very high selectivity, ratio >30-fold) | C (bin C for moderate selectivity, ratio ≥1) | A (bin A for very high selectivity, ratio >30-fold)

Further lines, the compound ahead of its results:

SMILES | IC50 (Ba/F3 cells TPM3-TRKA) [nM] | Ki (TRKA-wt) [nM] | IC50 [1] [nM] | Ki (ALK-wt) [nM] | IC50 [2] [nM] | Ki (ROS1-wt) [nM] | IC50 [3] [nM] | Ki (ROS1-G2032R) [nM] | Ki (ALK L1196M/G1202R) [nM] | IC50 [5] [nM] | TPM3-NTRK1-wt/CD74-ROS1-G2032R selectivity ratio [4] | TPM3-NTRK1-wt/CD74-ROS1-wt selectivity ratio [4] | TPM3-NTRK1-wt/EML4-ALK-L1196M-G1202R selectivity ratio [4] | TPM3-NTRK1-wt/EML4-ALK-wt selectivity ratio [4]
C[C@H]1Oc2cc(cnc2N)-c2c(C#N)ncn2Cc2nccnc2-c2ccc(F)cc21 [Example 46, (20R)-23-amino-17-fluoro-20-methyl-21-oxa-4,6,9,12,24-pentaazapentacyclo[20.3.1.0^2,^6.0^8,^13.0^14,^19]hexacosa-1(25),2,4,8(13),9,11,14,16,18,22(26),23-undecaene-3-carbonitrile] | > 500 | > 500 | 0.1 to 50 | < 50 | 50 to 500 | < 50 | 0.1 to 50 | 50 to 500 | 50 to 500 | 0.1 to 50 | A (bin A for very high selectivity, ratio >30-fold) | A (bin A for very high selectivity, ratio >30-fold) | A (bin A for very high selectivity, ratio >30-fold) | A (bin A for very high selectivity, ratio >30-fold)
C[C@H]1Oc2cc(cnc2N)-c2c(C#N)cnn2Cc2nccnc2-c2ccc(F)cc21 [Example 47] | > 500 | > 500 | 0.1 to 50 | < 50 | > 500 | < 50 | 50 to 500 | > 500 | 50 to 500 | 0.1 to 50 | B (bin B for high selectivity, ratio >10-fold) | A (bin A for very high selectivity, ratio >30-fold) | C (bin C for moderate selectivity, ratio ≥1) | A (bin A for very high selectivity, ratio >30-fold)
C[C@H]1Oc2cc(cnc2N)-c2c(C#N)ncn2Cc2ncc(F)cc2-c2ccc(F)cc21 [Example 48, (20R)-23-amino-11,17-difluoro-20-methyl-21-oxa-4,6,9,24-tetraazapentacyclo[20.3.1.0^2,^6.0^8,^13.0^14,^19]hexacosa-1(25),2,4,8(13),9,11,14,16,1 8,22(26),23-undecaene-3-carbonitrile] | > 500 | 50 to 500 | 0.1 to 50 | < 50 | 0.1 to 50 | < 50 | 0.1 to 50 | < 50 | < 50 | 0.1 to 50 | A (bin A for very high selectivity, ratio >30-fold) | A (bin A for very high selectivity, ratio >30-fold) | B (bin B for high selectivity, ratio >10-fold) | A (bin A for very high selectivity, ratio >30-fold)
